Experimental data from patent publication US9527842B2, “Inhibitors of human immunodeficiency virus replication” (priority 2013, dated 2016).

Test system: not given
Test: not given
Conditions: from C=CCCC1(C)CCN(c2c([C@H](OC(C)(C)C)C(=O)OC)c(C)cn3nc(C(=O)NCc4ccc(F)cc4OCC=C)cc23)CC1; rcm bond; 19-membered ring; Hoveyda-Grubbs II; then NaOH; DCE; 1.57 mM; 70.0 °C; 2.0 h; 2 steps

SMILES	ring closure, yield after HPLC [%]
COC(=O)[C@@H](OC(C)(C)C)c1c(C)cn2nc3cc2c1N1CCC(C)(CCC=CCOc2cc(F)ccc2CNC3=O)CC1	53.5

Same assay, conditions: from C=CCOC1(C)CCN(c2c([C@H](OC(C)(C)C)C(=O)OC)c(C)cn3nc(-c4cccc(-c5c(O[C@@H](C)CC=C)ccc(C)c5F)c4)cc23)CC1; rcm bond; 20-membered ring; Hoveyda-Grubbs II; then H2, Pd/C; then NaOH; DCE; 2.0 mM; 80.0 °C; 4.0 h; 3 steps

SMILES	ring closure, yield after HPLC [%]
COC(=O)[C@@H](OC(C)(C)C)c1c(C)cn2nc3cc2c1N1CCC(C)(CC1)OCC=CC[C@H](C)Oc1ccc(C)c(F)c1-c1cccc-3c1	11

Test system: recombinant NL-Rluc virus
Test: Inhibition of HIV replication (NL-RLuc luciferase reporter virus in MT-2 cells)
Type: cell-based
Conditions: Human immunodeficiency virus 1, MT2, 120 h

SMILES	EC50 [nM]
Cc1cc(CNC(=O)c2cc3c(-c4ccc5c6c(ccnc46)CCO5)c([C@H](OC(C)(C)C)C(=O)O)c(C)cn3n2)ccc1F (atropisomer, axis not shown) [Example 2, (2S)-2-(tert-Butoxy)-2-(4-(2,3-dihydropyrano[4,3,2-de]quinolin-7-yl)-2-((4-fluoro-3-methylbenzyl)carbamoyl)-6-methylpyrazolo[1,5-a]pyridin-5-yl)acetic acid]	63
Cc1ccc2c(c1)-c1cccc(c1)-c1cc3c(c([C@H](OC(C)(C)C)C(=O)O)c(C)cn3n1)N1CCC(C)(CC1)OCCC[C@H](C)CO2 (single isomer, unassigned) [Example 32]	178
Cc1cn2nc3ccccc3c2c(-c2cc(F)c3c(c2C)CCCO3)c1[C@H](OC(C)(C)C)C(=O)O [Example 25, (2S)-2-(tert-Butoxy)-2-(10-(8-fluoro-5-methylchroman-6-yl)-8-methylpyrido[1,2-b]indazol-9-yl)acetic acid]	37
C=CCOC1(C)CCN(c2c([C@H](OC(C)(C)C)C(=O)O)c(C)cn3nc(-c4cccc(Br)c4)cc23)CC1 [Example 28, (S)-2-(4-(4-(Allyloxy)-4-methylpiperidin-1-yl)-2-(3-bromophenyl)-6-methylpyrazolo[1,5-a]pyridin-5-yl)-2-(tert-butoxy)acetic acid]	138
Cc1cn2nc3cc2c(c1[C@H](OC(C)(C)C)C(=O)O)N1CCC(C)(CC1)OCCCC[C@H](C)Oc1ccc(C#N)cc1-c1cccc-3c1 [Example 42, (2S)-2-(tert-Butoxy)-2-[(22S)-17-cyano-4,22,28-trimethyl-21,27-dioxa-1,6,34-triazahexacyclo[26.2.2.1^6,^9.1^10,^14.0^2,^7.0^15,^20]tetratriaconta-2,4,7,9 (34),10(33),11,13,15(20),16,18-decaen-3-yl]acetic acid]	7
Cc1cn2nc(-c3ncc(Cc4ccc(F)cc4)o3)cc2c(N2CCC(C)(C)CC2)c1[C@H](OC(C)(C)C)C(=O)O [Example 5, (S)-2-(tert-Butoxy)-2-(4-(4,4-dimethylpiperidin-1-yl)-2-(5-(4-fluorobenzyl)oxazol-2-yl)-6-methylpyrazolo[1,5-a]pyridin-5-yl)acetic acid]	5
CCC[C@H](C)Oc1cccc(F)c1-c1cccc(-c2cc3c(N4CCC(C)(O)CC4)c([C@H](OC(C)(C)C)C(=O)O)c(C)cn3n2)c1 [Example 35, (2S)-2-(tert-Butoxy)-2-[2-(3-{2-fluoro-6-[(2S)-pentan-2-yloxy]phenyl}phenyl)-4-(4-hydroxy-4-methylpiperidin-1-yl)-6-methylpyrazolo[1,5-a]pyridin-5-yl]acetic acid]	607
Cc1cn2nc3cc2c(c1[C@H](OC(C)(C)C)C(=O)O)N1CCC(C)(CC1)OCCC[C@H](C)Oc1ccc(F)cc1-c1cccc-3c1 [Example 37, (2S)-2-(tert-Butoxy)-2-[(22S)-17-fluoro-4,22,27-trimethyl-21,26-dioxa-1,6,33-triazahexacyclo[25.2.2.1^6,^9.1^10,^14.0^2,^7.0^15,^20]tritriaconta-2,4,7,9(33),10(32),11,13,15(20),16,18-decaen-3-yl]acetic acid]	29
Cc1ccc2c(c1)-c1cccc(c1)-c1cc3c(c([C@H](OC(C)(C)C)C(=O)O)c(C)cn3n1)N1CCC(C)(CC1)OCCCCC[C@H](C)O2 [Example 30, (2S)-2-(tert-Butoxy)-2-[(22S)-4,17,22,29-tetramethyl-21,28-dioxa-1,6,35-triazahexacyclo[27.2.2.1^6,^9.1^10,^14.0^2,^7.0^15,^20]pentatriaconta-2,4,7,9 (35),10(34),11,13,15(20),16,18-decaen-3-yl]acetic acid]	84
Cc1cn2nc3cc2c(c1[C@H](OC(C)(C)C)C(=O)O)N1CCC(C)(CC1)OCCCC[C@H](C)Oc1cccc(F)c1-c1cccc-3c1 [Example 34, (2S)-2-(tert-Butoxy)-2-[(22S)-16-fluoro-4,22,28-trimethyl-21,27-dioxa-1,6,34-triazahexacyclo[26.2.2.1^6,^9.1^10,^14.0^2,^7.0^15,^20]tetratriaconta-2,4,7,9(34),10(33),11,13,15(20),16,18-decaen-3-yl]acetic acid]	14
Cc1cn2nc3cc2c(c1[C@H](OC(C)(C)C)C(=O)O)N1CCC(C)(CC1)OC/C=C/COc1ccccc1Cc1cnc-3s1 [Example 27, (2S)-2-(tert-Butoxy)-2-[(23E)-4,27-dimethyl-21,26-dioxa-32-thia-1,6,11,33-tetraazahexacyclo[25.2.2.1^6,^9.1^10,^13.0^2,^7.0^15,^20]tritriaconta-2,4,7,9 (33),10,12,15(20),16,18,23-decaen-3-yl]acetic acid]	4
Cc1cn2nc3cc2c(c1[C@H](OC(C)(C)C)C(=O)O)N1CCC(C)(CC1)OCCCC[C@H](C)Oc1cc(F)ccc1-c1cccc-3c1 [Example 38, (2S)-2-(tert-Butoxy)-2-[(22S)-18-fluoro-4,22,28-trimethyl-21,27-dioxa-1,6,34-triazahexacyclo[26.2.2.1^6,^9.1^10,^14.0^2,^7.0^15,^20]tetratriaconta-2,4,7,9 (34),10(33),11,13,15 (20),16,18-decaen-3-yl]acetic acid]	30
Cc1cn2nc3cc2c(c1[C@H](OC(C)(C)C)C(=O)O)N1CCC(C)(CC1)OCCCC[C@H](C)Oc1ccc(F)cc1-c1cccc-3c1 [Example 36, (2S)-2-(tert-Butoxy)-2-[(22S)-17-fluoro-4,22,28-trimethyl-21,27-dioxa-1,6,34-triazahexacyclo[26.2.2.1^6,^9.1^10,^14.0^2,^7.0^15,^20]tetratriaconta-2,4,7,9(34),10(33),11,13,15(20),16,18-decaen-3-yl]acetic acid]	50
Cc1ccc2c(c1F)-c1cccc(c1)-c1cc3c(c([C@H](OC(C)(C)C)C(=O)O)c(C)cn3n1)N1CCC(C)(CC1)OCCCC[C@H](C)O2 [Example 39, (2S)-2-(tert-Butoxy)-2-[(22S)-16-fluoro-4,17,22,28-tetramethyl-21,27-dioxa-1,6,34-triazahexacyclo[26.2.2.1^6,^9.1^10,^14.0^2,^7.0^15,^20]tetratriaconta-2,4,7,9(34),10(33),11,13,15(20),16,18-decaen-3-yl]acetic acid]	38
Cc1cc(CNC(=O)c2cc3c(-c4cc(F)c5c(c4C)CCCO5)c([C@H](OC(C)(C)C)C(=O)O)c(C)cn3n2)ccc1F [Example 1]	3
Cc1cn2nc(-c3ncc(Cc4ccc(F)cc4)s3)cc2c(N2CCC(C)(C)CC2)c1[C@H](OC(C)(C)C)C(=O)O [Example 4, (S)-2-(tert-Butoxy)-2-(4-(4,4-dimethylpiperidin-1-yl)-2-(5-(4-fluorobenzyl)thiazol-2-yl)-6-methylpyrazolo[1,5-a]pyridin-5-yl)acetic acid]	18
Cc1ccc2c(c1)-c1cccc(c1)-c1cc3c(c([C@H](OC(C)(C)C)C(=O)O)c(C)cn3n1)N1CCC(C)(CC1)OCCC[C@@H](C)CO2 (single isomer, unassigned) [Example 33]	116
Cc1ccc2c(c1)-c1cccc(c1)-c1cc3c(c([C@H](OC(C)(C)C)C(=O)O)c(C)cn3n1)N1CCC(C)(CC1)OCCCC[C@H](C)O2 [Example 29, (2S)-2-(tert-Butoxy)-21[(22S)-4,17,22,28-tetramethyl-21,27-dioxa-1,6,34-triazahexacyclo[26.2.2.1^6,^9.1^10,^14.0^2,^7.0^15,^20]tetratriaconta-2,4,7,9 (34),10(33),11,13,15(20),16,18-decaen-3-yl]acetic acid]	40
CCCOC1(C)CCN(c2c([C@H](OC(C)(C)C)C(=O)O)c(C)cn3nc(-c4cccc(-c5c(O[C@@H](C)CCC)ccc(C)c5F)c4)cc23)CC1 [Example 41, (2S)-2-(tert-Butoxy)-2-[2-(3-{2-fluoro-3-methyl-6-[(2S)-pentan-2-yloxy]phenyl}phenyl)-6-methyl-4-(4-methyl-4-propoxypiperidin-1-yl)pyrazolo[1,5-a]pyridin-5-yl]acetic acid]	728
Cc1cn2nc3cc2c(c1[C@H](OC(C)(C)C)C(=O)O)N1CCC(C)(CC/C=C/COc2cc(F)ccc2CNC3=O)CC1 [Example 26, (2S)-2-(tert-Butoxy)-2-[(21E)-16-fluoro-4,25-dimethyl-10-oxo-19-oxa-1,6,11,30-tetraazapentacyclo[23.2.2.1^6,^9.0^2,^7.0^13,^18]triaconta-2,4,7,9(30),13(18),14,16,21-octaen-3-yl]acetic acid]	6
Cc1cc(CNC(=O)c2cc3c(N4CCC(C)(C)CC4)c([C@H](OC(C)(C)C)C(=O)O)c(C)cn3n2)ccc1F [Example 3, (S)-2-(tert-Butoxy)-2-(4-(4,4-dimethylpiperidin-1-yl)-2-((4-fluoro-3-methylbenzyl)carbamoyl)-6-methylpyrazolo[1,5-a]pyridin-5-yl)acetic acid]	17
Cc1ccc2c(c1)-c1cccc(c1)-c1cc3c(c([C@H](OC(C)(C)C)C(=O)O)c(C)cn3n1)N1CCC(C)(CC1)OCCCCC[C@@H](C)O2 (single isomer, unassigned) [Example 31]	258
Cc1ccc2c(c1F)-c1cccc(c1)-c1cc3c(c([C@H](OC(C)(C)C)C(=O)O)c(C)cn3n1)N1CCC(C)(CC1)OCCCC[C@@H](C)O2 [Example 40, (2S)-2-(tert-Butoxy)-2-[(22R)-16-fluoro-4,17,22,28-tetramethyl-21,27-dioxa-1,6,34-triazahexacyclo[26.2.2.1^6,^9.1^10,^14.0^2,^7.0^15,^20]tetratriaconta-2,4,7,9(34),10(33),11,13,15(20),16,18-decaen-3-yl]acetic acid]	2350
